This is an account of results in patent US20090023184A1, “Novel Tachykinin Peptides, Precursor Peptides Thereof And Genes Encoding The Same” (SUNTORY LIMITED, priority 1999, published 2009).

Assay [1] concerns ileum of the guinea pig. As to the kind of experiment: Measurement of the ileum constricting activity of the guinea pig (isolated ileum, tension recording). It counts as cell-based. Conditions: concentration of 1×10^−8 M in chamber, 37° C. physiological saline; FIGS. 5 and 6. The protocol:
The ileum constricting activity of the guinea pig was performed in accordance with a method by Champagne et al. (Champagne D. E. et al., Proc. Natl. Acad. Sci. USA., 91, 138-142, 1994).
The ileum of the guinea pig was excised, and the both ends thereof were fastened with a cotton thread. Then, one end thereof was fixed to a sample chamber (5 ml capacity) and another end was fixed to a transducer to obtain a specimen for the examination. The inside of the sample chamber was maintained constantly with 37° C. physiological saline. The samples to be measured were dissolved into the physiological saline solution, and added to the sample chamber. The changes of tension of the ileum by constriction were recorded.

The subject of assay [2] is rectum of the carp. As to the kind of experiment: Measurement of the rectum constricting activity of the carp (isolated intestine, tension recording). To be noted: added to the chamber with the amount corresponding to one head of Octopus vulgaris; FIGS. 3 and 4. It counts as cell-based. The protocol:
The rectum constricting activity of the carp was performed as follow. That is, the intestine of the carp was excised, and the both ends thereof were fastened with a cotton thread. Then, one end thereof was fixed to a sample chamber (2 ml capacity) and another end was fixed to a transducer to obtain a specimen for the examination. The samples to be measured were dissolved into the physiological saline solution, and added to the sample chamber. The changes of tension of the intestine by constriction were recorded.

For the substance “H-Lys-Pro-Pro-Ser-Ser-Ser-Glu-Phe-Ile-Gly-Leu-Met-NH2 (H-KPPSSSEFIGLM-NH2) [Compound (2), tachykinin neuropeptide of Octopus vulgaris posterior salivary gland, isolated from Fraction B and also synthesized]”, the “constricting activity against the ileum of the guinea pig” value in assay [1] is “constricted strongly”. In addition, the “constricting activity against the rectum of the carp” value in assay [2] is on record as “constricted strongly”.

With “H-Lys-Pro-Pro-Ser-Ser-Ser-Glu-Phe-Val-Gly-Leu-Met-NH2 (H-KPPSSSEFVGLM-NH2) [Compound (1), tachykinin neuropeptide of Octopus vulgaris posterior salivary gland, isolated from Fraction A and also synthesized]”, the “constricting activity against the ileum of the guinea pig” value in assay [1] was “constricted strongly”. Moreover, the “constricting activity against the rectum of the carp” value in assay [2] was “constricted strongly”.
